Measurements from US20110040086A1, “Novel Beta-Lactam Antibiotics, Methods for Their Production, and Their Use” (DRITTE PATENTPORTFOLIO BETEILIGUNGSGESELLSCHAFT MB, priority 2007, published 2011).

What was measured:
[1] = system: Enterococcus faecalis 769; assay: agar diffusion test (Test System II, multi-resistant germs); type: cell-based; parameters: key: r = resistant (no detectable zone of inhibition)
Outline: (§1)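 Read-out is the diameter of the growth-free zone around each disc after plates incubate 18-20 hours at 37 °C. Discs hold 10, 50 or 100 μg of substance applied from methanol or aqueous solution, on agar seeded with bacteria adjusted to McFarland 0.5.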

[2] = system: Staphylococcus aureus 315; assay: as above; type: cell-based; parameters: key: r = resistant (no detectable zone of inhibition)
Outline: as §1

E. faecalis 945 = assay: as above; type: cell-based, Enterococcus faecalis; parameters: key: r = resistant (no detectable zone of inhibition)
Outline: as §1

S. aureus 33490 = assay: as above; type: cell-based, Staphylococcus aureus; parameters: key: r = resistant (no detectable zone of inhibition)
Outline: as §1

S. aureus 34289 = assay: as above; type: cell-based, Staphylococcus aureus; parameters: key: r = resistant (no detectable zone of inhibition)
Outline: as §1

S. aureus 36881 = assay: as above; type: cell-based, Staphylococcus aureus; parameters: key: r = resistant (no detectable zone of inhibition)
Outline: as §1

S. aureus 39105 = assay: as above; type: cell-based, Staphylococcus aureus; parameters: key: r = resistant (no detectable zone of inhibition)
Outline: as §1

S. aureus 520 = assay: as above; type: cell-based, Staphylococcus aureus; parameters: key: r = resistant (no detectable zone of inhibition)
Outline: as §1

S. aureus 526 = assay: as above; type: cell-based, Staphylococcus aureus; parameters: key: r = resistant (no detectable zone of inhibition)
Outline: as §1

[3] = system: S. aureus North Germany strain; assay: as above; type: cell-based, Staphylococcus aureus; parameters: key: r = resistant (no detectable zone of inhibition)
Outline: as §1

S. aureus 38418 = assay: as above; type: cell-based, Staphylococcus aureus
Outline: as §1

S. aureus ATCC 6538 = assay: as above; type: cell-based, Staphylococcus aureus
Outline: as §1

S. epidermidis 1068 = assay: as above; type: cell-based, Staphylococcus epidermidis; parameters: key: r = resistant (no detectable zone of inhibition)
Outline: as §1

S. epidermidis 1071 = assay: as above; type: cell-based, Staphylococcus epidermidis; parameters: key: r = resistant (no detectable zone of inhibition)
Outline: as §1

S. epidermidis 563 = assay: as above; type: cell-based, Staphylococcus epidermidis; parameters: key: r = resistant (no detectable zone of inhibition)
Outline: as §1

S. epidermidis 847 = assay: as above; type: cell-based, Staphylococcus epidermidis; parameters: key: r = resistant (no detectable zone of inhibition)
Outline: as §1

S. epidermidis 125 = assay: as above; type: cell-based, Staphylococcus epidermidis
Outline: as §1

[4] = system: Staphylococcus aureus ATCC 6538; assay: mouse infected with Staphylococcus aureus infection model (survival); type: in vivo, BALB/c mice; conditions: 2 × 0.5 mg (25 mg/kg) i.p.
Outline: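 Survival model: S. aureus grown to extinction 0.6 at 550 nm and injected i.p. (10 μl/g body weight) into cyclophosphamide-pretreated BALB/c mice (250 then 100 mg/kg i.p.), ≥3 animals per arm. Test antibiotic dosed i.p. at 30 min and again later at the same concentration, vehicle PBS/3% DMSO.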

7-{2-2-(2-hydroxyethylcarbamoyl)-3,6-dioxyocyclohexa-1,4-dienylamino]-2-(4-hydroxyphenyl)-acetylamino}-desacetoxycephalosporanic acid [1a]
26 mm: Diameter of zone of inhibition (S. aureus 38418; Quantity n [mol] 0.19)
r: Diameter of zone of inhibition ([1]; Quantity n 0.019) | Diameter of zone of inhibition ([1]; Quantity n 0.1) | Diameter of zone of inhibition ([1]; Quantity n 0.19) | Diameter of zone of inhibition ([2]; Quantity n 0.019) | Diameter of zone of inhibition (E. faecalis 945; Quantity n 0.019) | Diameter of zone of inhibition (E. faecalis 945; Quantity n 0.1) | Diameter of zone of inhibition (E. faecalis 945; Quantity n 0.19) | Diameter of zone of inhibition (S. aureus 33490; Quantity n [μmol] 0.019) | Diameter of zone of inhibition (S. aureus 34289; Quantity n [mol] 0.019) | Diameter of zone of inhibition (S. aureus 34289; Quantity n [mol] 0.1) | Diameter of zone of inhibition (S. aureus 34289; Quantity n [mol] 0.19) | Diameter of zone of inhibition (S. aureus 36881; Quantity n 0.019) | Diameter of zone of inhibition (S. aureus 39105; Quantity n 0.019) | Diameter of zone of inhibition (S. aureus 39105; Quantity n 0.1) | Diameter of zone of inhibition (S. aureus 520; Quantity n [mol] 0.019) | Diameter of zone of inhibition (S. aureus 520; Quantity n [mol] 0.1) | Diameter of zone of inhibition (S. aureus 526; Quantity n 0.019) | Diameter of zone of inhibition (S. aureus 526; Quantity n 0.1) | Diameter of zone of inhibition ([3]; Quantity n 0.019) | Diameter of zone of inhibition (S. epidermidis 1068; Quantity n 0.019) | Diameter of zone of inhibition (S. epidermidis 1071; Quantity n 0.019) | Diameter of zone of inhibition (S. epidermidis 563; Quantity n 0.019) | Diameter of zone of inhibition (S. epidermidis 847; Quantity n [mol] 0.019)
18 mm: Diameter of zone of inhibition (S. aureus 33490; Quantity n [μmol] 0.19) | Diameter of zone of inhibition ([3]; Quantity n 0.19) | Diameter of zone of inhibition (S. epidermidis 1071; Quantity n 0.1)
20 mm: Diameter of zone of inhibition (S. aureus ATCC 6538; Quantity n 0.019) | Diameter of zone of inhibition (S. epidermidis 1071; Quantity n 0.19) | Diameter of zone of inhibition (S. epidermidis 847; Quantity n [mol] 0.19)
24 mm: Diameter of zone of inhibition (S. aureus 38418; Quantity n [mol] 0.1) | Diameter of zone of inhibition (S. epidermidis 125; Quantity n 0.1)
14 mm: Diameter of zone of inhibition (S. aureus 33490; Quantity n [μmol] 0.1) | Diameter of zone of inhibition (S. aureus 39105; Quantity n 0.19) | Diameter of zone of inhibition (S. aureus 38418; Quantity n [mol] 0.019) | Diameter of zone of inhibition (S. epidermidis 125; Quantity n 0.019)
16 mm: Diameter of zone of inhibition ([2]; Quantity n 0.19) | Diameter of zone of inhibition (S. aureus 36881; Quantity n 0.19) | Diameter of zone of inhibition ([3]; Quantity n 0.1) | Diameter of zone of inhibition (S. epidermidis 1068; Quantity n 0.19) | Diameter of zone of inhibition (S. epidermidis 563; Quantity n 0.19) | Diameter of zone of inhibition (S. epidermidis 847; Quantity n [mol] 0.1)
28 mm: Diameter of zone of inhibition (S. aureus ATCC 6538; Quantity n 0.1) | Diameter of zone of inhibition (S. epidermidis 125; Quantity n 0.19)
9/9: Survival/tested mice n/n [4]
10 mm: Diameter of zone of inhibition ([2]; Quantity n 0.1) | Diameter of zone of inhibition (S. aureus 36881; Quantity n 0.1) | Diameter of zone of inhibition (S. aureus 526; Quantity n 0.19) | Diameter of zone of inhibition (S. epidermidis 1068; Quantity n 0.1) | Diameter of zone of inhibition (S. epidermidis 563; Quantity n 0.1)
30 mm: Diameter of zone of inhibition (S. aureus ATCC 6538; Quantity n 0.19)
12 mm: Diameter of zone of inhibition (S. aureus 520; Quantity n [mol] 0.19)
